{"source": "patent US9314522B2", "about": "“Antitumors combinations containing antibodies recognizing specifically CD38 and bortezomib” (Sanofi, priority 2010, dated 2016)", "key": {"[1]": {"assay": "Body weight loss as index of test agent toxicity in NCI-H929 tumor-bearing mice", "type": "in vivo, SCID mice", "conditions": "days 34, 37", "from_the_text": "The animals subjected to the experiment, generally mice, are subcutaneously grafted unilaterally or bilaterally with tumor cells or fragment on day 0. The animals bearing tumors are randomized based on their tumor size before being subjected to the various treatments and controls. Chemotherapy begins when tumors have reached a predetermined size after grafting, depending on the type of tumor, and the animals are observed every day. The different animal groups are weighed daily during treatment until the maximum weight loss is reached and subsequent full weight recovery has occurred. The groups are then weighed once or twice a week until the end of the trial.\nBody weights were measured twice per week as a rough index of test agent toxicity. Tumor volume and body weight were determined and recorded by Labcat software.\nToxicity was declared at dosages inducing 20% body weight loss or 10% drug death, […]"}, "[2]": {"tested_on": "NCI-H929 tumor xenografts", "conditions": "days 34, 37", "text": "A product is considered to be active if log10 cell kill is greater than or equal to 0.7. A product is considered to be very active if log10 cell kill is greater than or equal to 2.8.\nThe combination will manifest therapeutic synergy when the log10 cell kill is greater than the value of the log10 cell kill of the best constituent administered alone at its maximum tolerated dose or at its highest dose tested.\nThe animals subjected to the experiment, generally mice, are subcutaneously grafted unilaterally or bilaterally with tumor cells or fragment on day 0. The animals bearing tumors are randomized based on their tumor size before being subjected to the various treatments and controls. Chemotherapy begins when tumors have reached a predetermined size after grafting, depending on the type of tumor, and the animals are observed every day. […] The groups are then weighed once or twice a week until the end of the trial.\nThe tumors are measured 1 to 5 times a week, depending on the tumor doubling time, until the tumor reaches approximately 750 mg, or until the animal dies (if this occurs before the tumor reaches 750 mg). The animals are necropsied immediately after euthanasia or death.\nHu38SB19 and Bortezomib treatments were started thirty four days after cell inoculation and doses were calculated based on individual animal body weights determined from the last measurement taken before dosing. Administration of PBS and hu38SB19 antibody was carried out through intraperitoneal (IP) injection and bortezomib by intravenous (IV) injection via the tail vein, using a 1.0 mL syringe fitted with a 27 gauge, ½ inch needle.\nThirty-three days after tumor cell inoculation, sixty-four mice were randomized into 8 groups (n=8) by tumor volume. […] Mice in each group were identified by a puncture in the ear.\nTreatment groups included PBS control (200 μL/mouse/treatment), hu38SB19 antibody (5.0 mg/kg/treatment), bortezomib (1.0, 0.6 and 0.4 mg/kg/treatment) and three combination groups with hu38SB19 (5.0 mg/kg/treatment) and bortezomib (1.0, 0.6 and 0.4 mg/kg/treatment). PBS, hu38SB19 and bortezomib were administered twice per week for one week (days 34 and 37 for a total of 2 treatments). Treatments were started on day 34 post inoculation of tumor cells.\nTumor volumes were measured one to two times weekly in three dimensions using a caliper. The tumor volume was expressed in mm^3 (or mg) using the formula: V=Length×Width×Height×½.\nTumor Free Survivors (TFS): correspond to complete regression below the limit of palpation (63 mg) for the entire duration of the study (>100 days post last treatment)."}, "[3]": {"conditions": "Bortezomib IV 0.4 mg/kg/injection (total 0.8)"}, "[4]": {"conditions": "Bortezomib IV 0.4 mg/kg/injection (total 0.8), 0.4 mg/kg"}, "[5]": {"conditions": "Bortezomib IV 0.4 mg/kg/injection (total 0.8), listed as bortezomib, 0.4 mg/kg"}, "[6]": {"conditions": "Bortezomib IV 0.6 mg/kg/injection (total 1.2)"}, "[7]": {"conditions": "Bortezomib IV 0.6 mg/kg/injection (total 1.2), 0.6 mg/kg"}, "[8]": {"conditions": "Bortezomib IV 0.6 mg/kg/injection (total 1.2), listed as bortezomib, 0.6 mg/kg"}, "[9]": {"conditions": "Bortezomib IV 1.0 mg/kg/injection (total 2.0)"}, "[10]": {"conditions": "Bortezomib IV 1.0 mg/kg/injection (total 2.0), 1 mg/kg"}, "[11]": {"conditions": "Bortezomib IV 1.0 mg/kg/injection (total 2.0), listed as bortezomib, 1 mg/kg"}}, "note": "Like-named read-outs stand apart in the source and are kept apart here.", "data": [{"compound": "CC(C)C[C@H](NC(=O)[C@H](Cc1ccccc1)NC(=O)c1cnccn1)B(O)O", "note": "[Bortezomib, [(1R)-3-methyl-1-({(2S)-3-phenyl-2-[(pyrazin-2-ylcarbonyl)amino]propanoyl}amino)butyl]boronic acid]", "values": [{"measurement": "Average body weight loss in % per mouse at nadir (day of nadir)", "setting": "[1]; Bortezomib IV 0.4 mg/kg/injection (total 0.8), nadir d36", "result": "0.8 (d36) %"}, {"measurement": "Average body weight loss in % per mouse at nadir (day of nadir)", "setting": "[1]; Bortezomib IV 0.6 mg/kg/injection (total 1.2), nadir d40", "result": "0.6 (d40) %"}, {"measurement": "Average body weight loss in % per mouse at nadir (day of nadir)", "setting": "[1]; Bortezomib IV 1.0 mg/kg/injection (total 2.0), nadir d36", "result": "7.0 (d36) %"}, {"measurement": "T-C in days (tumor growth delay)", "setting": "[2]; [3]", "result": 7, "unit": "days"}, {"measurement": "Time for median tumor to reach 750 mg", "setting": "[2]; [3]", "result": 69, "unit": "days"}, {"measurement": "log cell kill", "setting": "[2]; [3]", "result": 0.1}, {"measurement": "% T/C", "setting": "[2]; [4]", "result": 74, "unit": "%"}, {"measurement": "Comments (anti-tumor activity rating)", "setting": "[2]; [4]", "result": "Inactive"}, {"measurement": "TFS at day 176 (tumor free survivors)", "setting": "[2]; [4]", "result": "1/8"}, {"measurement": "% T/C", "setting": "[2]; [5]", "result": 45, "unit": "%"}, {"measurement": "Comments (anti-tumor activity rating)", "setting": "[2]; [5]", "result": "inactive"}, {"measurement": "TFS at day 176 (tumor free survivors)", "setting": "[2]; [5]", "result": "single TFS"}, {"measurement": "T-C in days (tumor growth delay)", "setting": "[2]; [6]", "result": 18, "unit": "days"}, {"measurement": "Time for median tumor to reach 750 mg", "setting": "[2]; [6]", "result": 80, "unit": "days"}, {"measurement": "log cell kill", "setting": "[2]; [6]", "result": 0.3}, {"measurement": "% T/C", "setting": "[2]; [7]", "result": 45, "unit": "%"}, {"measurement": "Comments (anti-tumor activity rating)", "setting": "[2]; [7]", "result": "Inactive"}, {"measurement": "TFS at day 176 (tumor free survivors)", "setting": "[2]; [7]", "result": "0/8"}, {"measurement": "% T/C", "setting": "[2]; [8]", "result": 75, "unit": "%"}, {"measurement": "Comments (anti-tumor activity rating)", "setting": "[2]; [8]", "result": "inactive"}, {"measurement": "TFS at day 176 (tumor free survivors)", "setting": "[2]; [8]", "result": "No TFS"}, {"measurement": "% T/C", "setting": "[2]; [9]", "result": 15, "unit": "%"}, {"measurement": "T-C in days (tumor growth delay)", "setting": "[2]; [9]", "result": 37, "unit": "days"}, {"measurement": "Time for median tumor to reach 750 mg", "setting": "[2]; [9]", "result": 99, "unit": "days"}, {"measurement": "log cell kill", "setting": "[2]; [9]", "result": 0.6}, {"measurement": "Comments (anti-tumor activity rating)", "setting": "[2]; [10]", "result": "Active"}, {"measurement": "TFS at day 176 (tumor free survivors)", "setting": "[2]; [10]", "result": "2/8"}, {"measurement": "Comments (anti-tumor activity rating)", "setting": "[2]; [11]", "result": "somewhat active"}, {"measurement": "TFS at day 176 (tumor free survivors)", "setting": "[2]; [11]", "result": 2}]}]}
